Data: patent publication US20130108573A1, “Bile Acid Recycling Inhibitors for Treatment of Hypercholemia and Cholestatic Liver Disease” (Lumena Pharmaceuticals, Inc., priority 2011, published 2013)
Marks after values point to notes of the source that are not given here.

Experiments:
[1] = tested on: Dog Serum Bile Acids; assay: Duration of action of LUM001 on dog serum bile acids, Method 2: one meal, extended interval between dosing and feeding; format: in vivo, beagle dogs; conditions: for Serum Bile Acid, Mean: dogs n = 6, 0.2 mg/kg p.o., dosing time 0 hr, feeding time 2 hr
Experimental: LUM001 was dissolved in water at concentrations that required the administration of 0.2 ml/kg of solution. Solutions were placed into gelatin capsules, Torpac Inc., size 13 Batch 594, East Hanover N.J., and administered orally.
Male beagle dogs were obtained from Covance Research Products, Cumberland Va. or Marshall Farms USA, Inc., North Rose N.Y. A total of 20 dogs, 1 to 5 years old, 6.8 to 15.6 kg body weight, were used in these experiments. The dogs were conditioned to a 12 hour light/dark cycle and maintained on a feeding restriction of 1 hour per day access to food (Richman Standard Certified Canine Diet #5007, PMI Nutrition, Inc., St Louis Mo.) from 7 to 8 AM. They were trained to eat a special meal promptly within 20 minutes when presented (1 can. 397 g, Evanger's 100% Beef for Dogs, Evanger's Dog and Cat Food Co., Inc., Wheeling Ill., mixed with 50 g of sharp cheddar cheese.).
SBA was measured by an enzymatic assay. SBA values are expressed as μg of total bile acids/ml of serum.
In dogs a single experimental meal produces a postprandial rise in SBA that is elevated to a peak at 1 hour after feeding and constant for an additional 3 hours. Previous experiments (2) indicate that LUM001 remains active for more than 4.5 hours. To measure the duration of action of an ASBT inhibitor using postprandial SBA levels requires that in the control situation the SBA levels remain elevated and constant for the entire period of compound action, or that the compound be administered long before the postprandial rise occurs, and remain active in the empty digestive system for long periods before feeding. Accordingly, two alternative methods were used to provide a window of constant SBA elevation that could be used to measure the duration of action of ASBT inhibitors.
Alternatively, 6 dogs were dosed with water or LUM001, at 0.05 mg/kg, p.o. at 1.5 hours prior to being fed, or 0.05, or 0.2 mg/kg, at 2 hours prior to feeding. This moved the elevated SBA plateau out in time from the dose point. Blood samples for SBA measurement were taken immediately before dosing (0 or 0.5 hr), at feeding (2 hr), 2.5, 3, 4 and 5 hours after feeding. This allowed detection of activity out to 5.5 and 6 hours after dosing without feeding the dogs a second time. Mean SBA levels were compared to the corresponding mean SBA levels in water treated controls.

[2] = tested on: Dog Serum Bile Acids; assay: as above; format: in vivo, beagle dogs; conditions: feeding time 2 hr

SMILES: CCCCC1(CCCC)CS(=O)(=O)c2ccc(N(C)C)cc2[C@@H](c2ccc(OCc3ccc(C[N+]45CCN(CC4)CC5)cc3)cc2)[C@H]1O [LUM001]
- Serum Bile Acid, Mean ([1]; time 0 hr): 1.3 µg/mL
- Serum Bile Acid, Mean ([1]; time 2 hr): 1.7 µg/mL
- Serum Bile Acid, Mean ([1]; time 5 hr): 7.9* μg/ml
- Time after feeding for which a significant SBA effect was sustained ([1]; dogs, 0.2 mg/kg administered 2 hours prior to feeding): 2 to 3 h
- Serum Bile Acid, Mean ([2]; dogs n = 6, 0.2 mg/kg p.o., dosing time 0 hr, time 3 hr): 4.1* μg/ml
- Serum Bile Acid, Mean ([2]; dogs n = 6, 0.2 mg/kg p.o., dosing time 0 hr, time 4 hr): 6.5* μg/ml
- Serum Bile Acid, Mean ([2]; dogs n = 9, 0.05 mg/kg p.o., dosing time 0 hr, time 0 hr): 1.7 µg/mL
- Serum Bile Acid, Mean ([2]; dogs n = 9, 0.05 mg/kg p.o., dosing time 0 hr, time 2 hr): 2.0 µg/mL
- Serum Bile Acid, Mean ([2]; dogs n = 9, 0.05 mg/kg p.o., dosing time 0 hr, time 3 hr): 9.0* μg/ml
- Serum Bile Acid, Mean ([2]; dogs n = 9, 0.05 mg/kg p.o., dosing time 0 hr, time 4 hr): 10.8 µg/mL
- Serum Bile Acid, Mean ([2]; dogs n = 9, 0.05 mg/kg p.o., dosing time 0 hr, time 5 hr): 10.6 µg/mL
- Serum Bile Acid, Mean ([2]; dogs n = 9, 0.05 mg/kg p.o., dosing time 0.5 hr, time 0.5 hr): 1.8 µg/mL
- Serum Bile Acid, Mean ([2]; dogs n = 9, 0.05 mg/kg p.o., dosing time 0.5 hr, time 2 hr): 1.7 µg/mL
- Serum Bile Acid, Mean ([2]; dogs n = 9, 0.05 mg/kg p.o., dosing time 0.5 hr, time 2.5 hr): 2.5 µg/mL
- Serum Bile Acid, Mean ([2]; dogs n = 9, 0.05 mg/kg p.o., dosing time 0.5 hr, time 3 hr): 9.7 µg/mL
- Serum Bile Acid, Mean ([2]; dogs n = 9, 0.05 mg/kg p.o., dosing time 0.5 hr, time 4 hr): 12.4 µg/mL
- Serum Bile Acid, Mean ([2]; dogs n = 9, 0.05 mg/kg p.o., dosing time 0.5 hr, time 5 hr): 11.6 µg/mL
